These results are taken from ChEMBL document CHEMBL3217584, “Pharmacokinetics of bendamustine in the central nervous system: chemoinformatic screening followed by validation in a murine model” (Medchemcomm, 2012).

For one data set, the system named is Brain. In words: Drug uptake in C57BL/6J mouse brain at 70 mg/kg, ip measured at 20 to 40 mins by CE-UV analysis. The data set is classed as ADME, organism-based. Details: dose 70 mg/kg, route intraperitoneal. As to conditions: in vivo.
The nature of data set [1]: Drug uptake in C57BL/6J mouse eye at 70 mg/kg, ip measured at 20 to 40 mins by CE-UV analysis. The data set is classed as ADME, organism-based. Details: dose 70 mg/kg, route intraperitoneal. Particulars: in vivo.
Data set [2] can be described thus: Half life in C57BL/6J mouse serum at 70 mg/kg, ip by CE-UV analysis. Details: dose 70 mg/kg, route intraperitoneal. The data set is classed as ADME, organism-based.
A short description of data set [3]: Cmax in C57BL/6J mouse CSF at 70 mg/kg, ip measured at 20 to 40 mins by CE-UV analysis. The format is ADME, organism-based, Cerebrospinal fluid. Details: dose 70 mg/kg, route intraperitoneal.
Data set [4] can be described thus: AUC in C57BL/6J mouse serum at 70 mg/kg, ip by CE-UV analysis. Details: dose 70 mg/kg, route intraperitoneal. The data set is classed as ADME, organism-based, Plasma.
Data set [5] can be described thus: AUC in C57BL/6J mouse CSF at 70 mg/kg, ip by CE-UV analysis. The format is ADME, organism-based. Details: dose 70 mg/kg, route intraperitoneal.
A short description of data set [6]: Ratio of AUC in C57BL/6J mouse CSF to AUC in C57BL/6J mouse serum. The data set is classed as ADME.

As a reminder, the half-life is the time needed for the level to fall by half in the phase considered. A lower half-life goes with rapid decline. The term Cmax denotes the highest concentration seen after dosing. The AUC is the area under the concentration-time curve, a measure of exposure. As to `Cn1c(CCCC(=O)O)nc2cc(N(CCCl)CCCl)ccc21` [BENDAMUSTINE], the Drug uptake result (in the data set with Brain; in data set [1]) was “Active” in each case. In addition, the half-life in data set [2] is 40 min. Moreover, in data set [3], the peak concentration (Cmax) was found to be 393 µM. For the same compound, the AUC in data set [4] was 575 µM·h; in data set [5] it was 210 µM·h. The “Ratio AUC” value in data set [6] amounted to 35%.
